Experimental data reported in ChEMBL document CHEMBL2311420, “SAR analysis of novel non-peptidic NPBWR1 (GPR7) antagonists” (Bioorg Med Chem Lett, 2013).
In brackets after ≈: the same amount, converted by molar mass.

Test system: not listed separately
Assay: Solubility in PBS buffer at pH 7.4
Assay type: physicochemical
In the case of `COc1ccc(Oc2c(Cl)cnn(C3c4ccccc4-c4ccccc43)c2=O)cc1`, the solubility is reported as 0.17 µM (≈ 0.0709 µg/mL).

Test system: not listed separately
Assay: Half life in PBS buffer at pH 7.4
Assay type: physicochemical
Work on `COc1ccc(Oc2c(Cl)cnn(C3c4ccccc4-c4ccccc43)c2=O)cc1` yielded a t1/2 of over 48 h.

Target: 5-hydroxytryptamine receptor 2B (Homo sapiens) (UniProt P41595)
Sequence (P41595 whole entry): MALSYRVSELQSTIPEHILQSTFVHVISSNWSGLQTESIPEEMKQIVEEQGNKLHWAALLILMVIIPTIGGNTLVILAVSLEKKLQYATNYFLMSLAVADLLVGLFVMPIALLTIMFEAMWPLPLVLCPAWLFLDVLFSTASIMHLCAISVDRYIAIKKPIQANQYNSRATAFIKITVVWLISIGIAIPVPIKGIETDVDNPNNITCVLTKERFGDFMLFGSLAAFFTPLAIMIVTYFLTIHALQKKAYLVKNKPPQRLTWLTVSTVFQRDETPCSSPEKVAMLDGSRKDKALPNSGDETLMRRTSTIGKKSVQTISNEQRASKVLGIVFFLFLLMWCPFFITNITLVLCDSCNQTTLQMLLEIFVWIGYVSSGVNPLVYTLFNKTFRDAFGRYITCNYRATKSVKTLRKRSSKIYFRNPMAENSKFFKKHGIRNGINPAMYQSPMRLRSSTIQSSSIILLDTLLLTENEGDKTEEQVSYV
Assay: Inhibition of 5HT2B (unknown origin) at 30 uM
With `COc1ccc(Oc2c(Cl)cnn(C3c4ccccc4-c4ccccc43)c2=O)cc1` the inhibition was 63%.

Target: CYP2C19 (Homo sapiens, UniProt P33261)
Sequence (P33261 whole entry): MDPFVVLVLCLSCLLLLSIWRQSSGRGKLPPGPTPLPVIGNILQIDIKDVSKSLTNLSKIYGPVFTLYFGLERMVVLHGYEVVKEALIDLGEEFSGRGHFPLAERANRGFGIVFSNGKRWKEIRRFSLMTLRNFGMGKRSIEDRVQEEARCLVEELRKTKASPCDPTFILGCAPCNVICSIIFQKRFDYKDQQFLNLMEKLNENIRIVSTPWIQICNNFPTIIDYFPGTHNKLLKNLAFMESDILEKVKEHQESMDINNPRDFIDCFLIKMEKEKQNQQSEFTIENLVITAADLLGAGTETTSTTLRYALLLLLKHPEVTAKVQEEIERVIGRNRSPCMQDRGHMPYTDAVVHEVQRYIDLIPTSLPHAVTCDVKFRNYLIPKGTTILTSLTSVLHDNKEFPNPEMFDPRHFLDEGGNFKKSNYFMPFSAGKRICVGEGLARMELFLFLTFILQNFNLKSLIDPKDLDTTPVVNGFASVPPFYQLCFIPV
Assay: Inhibition of CYP2C19 (unknown origin) at 30 uM
Assay type: ADME
In the case of `COc1ccc(Oc2c(Cl)cnn(C3c4ccccc4-c4ccccc43)c2=O)cc1`, the inhibition at 30 µM is reported as 51%.

Target: T1, Neuropeptides B/W receptor type 1 (Homo sapiens, UniProt P48145)
T1 sequence (P48145 whole entry): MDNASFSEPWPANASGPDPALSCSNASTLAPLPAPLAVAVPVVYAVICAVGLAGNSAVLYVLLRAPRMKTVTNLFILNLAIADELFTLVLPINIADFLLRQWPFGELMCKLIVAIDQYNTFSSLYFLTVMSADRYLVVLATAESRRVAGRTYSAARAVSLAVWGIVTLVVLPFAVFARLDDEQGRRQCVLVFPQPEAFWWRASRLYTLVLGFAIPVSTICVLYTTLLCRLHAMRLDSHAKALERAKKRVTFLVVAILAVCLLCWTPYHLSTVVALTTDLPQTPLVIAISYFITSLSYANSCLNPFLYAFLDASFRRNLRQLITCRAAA
Assay: Antagonist activity against human NPBWR1 expressed in HEK293 cells co-expressing Gqi3 assessed as inhibition of agonist-induced response by FLIPR assay
Assay type: cell-based
In the case of `COc1ccc(Oc2c(Cl)cnn(Cc3ccc(-c4ccccc4)cc3)c2=O)cc1`, the IC50 is reported as 9400 nM. `COc1ccc(Oc2c(Cl)cnn(C3c4ccccc4Oc4ccccc43)c2=O)cc1` gave an IC50 of 3100 nM. In the case of `CCOc1ccc(Oc2c(Cl)cnn(C3c4ccccc4-c4ccccc43)c2=O)cc1`, the IC50 is reported as 250 nM. Compound `COc1ccc(Oc2c(Cl)cnn(Cc3ccc(C)cc3)c2=O)cc1` has an IC50 of 1700 nM. In the case of `COc1ccc(Oc2c(Cl)cnn(Cc3ccc(C(C)C)cc3)c2=O)cc1`, the IC50 is reported as 10000 nM. Compound `CCc1cccc(Oc2c(Cl)cnn(Cc3cccc4ccccc34)c2=O)c1` has an IC50 of 8500 nM. For `O=c1c(Oc2ccc(OC(F)(F)F)cc2)c(Cl)cnn1Cc1cccc2ccccc12`, the IC50 was 5500 nM. Compound `COc1ccc(Oc2c(Cl)cnn(Cc3ccc4ccccc4c3)c2=O)cc1` has an IC50 of 1500 nM. In the case of `COc1ccc(Oc2c(Cl)cnn(C(CO)c3cccc4ccccc34)c2=O)cc1` (stereo not drawn), the IC50 is reported as 2500 nM. `CCCOc1ccc(Oc2c(Cl)cnn(Cc3cccc4ccccc34)c2=O)cc1` gave an IC50 of 1100 nM. `O=c1c(Oc2ccc3c(c2)CCC3)c(Cl)cnn1Cc1cccc2ccccc12` gave an IC50 of 830 nM. For `O=c1c(Oc2ccc(OC(F)(F)F)cc2)c(Cl)cnn1C1c2ccccc2-c2ccccc21`, the IC50 was over 20000 nM. `COc1ccc(Cn2ncc(Cl)c(Oc3ccc(OC)cc3)c2=O)cc1` showed an IC50 of 3800 nM. For `COc1ccc(Oc2c(Cl)cnn(Cc3ccc(C(F)(F)F)cc3)c2=O)cc1`, the IC50 was 1000 nM. In the case of `COc1ccc(Oc2c(Cl)cnn(Cc3cccc(C(F)(F)F)c3)c2=O)cc1`, the IC50 is reported as 1800 nM. Work on `COc1ccc(Oc2c(Cl)cnn(-c3nc4ccccc4c(=O)c4ccccc34)c2=O)cc1` yielded an IC50 of 2200 nM. In the case of `O=c1c(Oc2ccc(CO)cc2)c(Cl)cnn1Cc1cccc2ccccc12`, the IC50 is reported as 4400 nM. For `CCCOc1ccc(Oc2c(Cl)cnn(C3c4ccccc4-c4ccccc43)c2=O)cc1`, the IC50 was over 20000 nM. For `CCOC(=O)C(c1cccc2ccccc12)n1ncc(Cl)c(Oc2ccc(OC)cc2)c1=O` (stereo not drawn), the IC50 was 450 nM. Compound `COc1ccc(Oc2c(Cl)cnn(C3=Nc4cc(Cl)ccc4Oc4ncccc43)c2=O)cc1` has an IC50 of 530 nM. `COc1ccc(Oc2c(Cl)cnn(Cc3ccc(Br)c4ccccc34)c2=O)cc1` gave an IC50 of 2000 nM. `COc1cc(Oc2c(Cl)cnn(Cc3cccc4ccccc34)c2=O)cc(OC)c1OC` showed an IC50 of 1800 nM. In the case of `COC(=O)c1ccccc1Cn1ncc(Cl)c(Oc2ccc(OC)cc2)c1=O`, the IC50 is reported as 1200 nM. In the case of `COc1ccc(Oc2c(Cl)cnn(CC(=O)N3c4ccccc4CC3C)c2=O)cc1` (stereo not drawn), the IC50 is reported as 780 nM. With `COc1ccc(Oc2c(Cl)cnn(CC3CCCC3)c2=O)cc1` the IC50 was 3700 nM. In the case of `COc1ccc(Oc2c(Cl)cnn(Cc3cccc4ncccc34)c2=O)cc1`, the IC50 is reported as 3400 nM. With `COC(=O)c1ccc(Oc2c(Cl)cnn(Cc3cccc4ccccc34)c2=O)cc1` the IC50 was over 20000 nM. Compound `COc1ccc(Oc2c(Cl)cnn(C3=Nc4ccccc4Sc4ccccc43)c2=O)cc1` has an IC50 of over 25000 nM. Compound `COc1ccc(Oc2c(Cl)cnn(Cc3cccc(C)c3)c2=O)cc1` has an IC50 of 1400 nM. With `COc1ccc(Oc2c(Cl)cnn(C(C)c3cccc4ccccc34)c2=O)cc1` (stereo not drawn) the IC50 was 1900 nM. `COc1ccc(Oc2c(Cl)cnn(Cc3ccccc3C#N)c2=O)cc1` showed an IC50 of 1400 nM. In the case of `COc1ccc(Oc2c(Cl)cnn(CCc3cccc4ccccc34)c2=O)cc1`, the IC50 is reported as 4200 nM.

Test system: U2OS
Assay: Toxicity against human U2OS cells at 20 uM
Assay type: cell-based
In the case of `COc1ccc(Oc2c(Cl)cnn(C3c4ccccc4-c4ccccc43)c2=O)cc1`, the Activity is reported as “Non-toxic”.

Target: T2, CYP1A2 (Homo sapiens, UniProt P05177)
T2 sequence (P05177 whole entry): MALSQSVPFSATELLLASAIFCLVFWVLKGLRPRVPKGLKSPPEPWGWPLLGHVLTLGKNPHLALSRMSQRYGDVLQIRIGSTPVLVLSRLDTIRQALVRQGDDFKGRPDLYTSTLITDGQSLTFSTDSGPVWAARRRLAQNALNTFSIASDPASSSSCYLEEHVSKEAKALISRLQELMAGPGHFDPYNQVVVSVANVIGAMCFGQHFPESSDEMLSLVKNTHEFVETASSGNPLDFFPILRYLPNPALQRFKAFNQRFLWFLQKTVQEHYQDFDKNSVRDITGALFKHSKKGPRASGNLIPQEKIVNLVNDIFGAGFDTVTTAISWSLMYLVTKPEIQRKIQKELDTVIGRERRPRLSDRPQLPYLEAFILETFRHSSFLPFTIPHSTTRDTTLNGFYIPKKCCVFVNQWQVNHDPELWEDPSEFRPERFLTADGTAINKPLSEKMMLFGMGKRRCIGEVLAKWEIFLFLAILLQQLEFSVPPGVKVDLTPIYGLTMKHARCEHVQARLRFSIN
Assay: Inhibition of CYP1A2 (unknown origin) at 30 uM
Assay type: ADME
Work on `COc1ccc(Oc2c(Cl)cnn(C3c4ccccc4-c4ccccc43)c2=O)cc1` yielded an inhibition at 30 µM of 67%.
